Source: patent US20080166805A1, “Culturing human cells and tissues in an N-glycolylneuraminic acid-free environment” (The Regents of the University of California, priority 2005, published 2008)

Assays:
[1] = system: human LB EBV-transformed lymphoblasts; test: Neu5Gc/Neu5Ac feeding experiment, human EBV-transformed lymphoblasts; assay type: cell-based; details: human lymphoblasts fed 3 mM for 3 days
Experimental: (§1) Cell Culture—Caco-2 cells were propagated in alpha-MEM containing GLUTAMAX™ (Invitrogen, San Diego, Calif.) and a mixture of ribonucleosides and deoxyribonucleosides (Gibco/Invitrogen, San Diego, Calif.) supplemented with 20% FCS. All the fibroblast cell lines and CHO-K1 cells were cultured in the same media supplemented respectively with 15% non-heat inactivated FCS or 10% heat inactivated FCS. Chimpanzee Fred and human […] EBV-transformed lymphoblasts were cultured in RPMI-1640 (Gibco/Invitrogen, San Diego, Calif.) supplemented with 10% heat inactivated FCS or 15% human serum. All of the cultures were maintained at 37° C., 5% CO2 atmosphere. In order to deplete any remaining Neu5Gc from FCS, the cells were split and cultured prior to Neu5Gc feeding experiments for at least 4 days in alpha-MEM supplemented with an adequate percentage of heat-inactivated premium human serum instead of FCS. The cells were then maintained under the same conditions during the whole feeding experiment. The human serum was heat inactivated at 56° C. for 30 min. before use.
(§2) Neu5Gc and ManNGc Feeding Experiment—Neu5Ac, Neu5Gc or ManNGc were dried, dissolved in the appropriate media supplemented with heat-inactivated human serum, sterilized using a Spin-X® (Corning Inc., Corning, N.Y.) and then added to the cells. The pH of the media containing Sia was adjusted to neutrality using sterilized 1M NaOH before starting the feeding experiment. Cells were cultured in the presence of up to 3 mM free Sia or ManNGc for 1 or 3 days at 37° C. […]
(§3) Fractionation of the Labeled Cells—Washed cell pellets were sonicated into 500 μL of 20 mM sodium phosphate buffer or 20 mM Tris-HCl, pH 7.5, using 4×15 second pulses of a sonicator cell disrupter, model Some Dismembrator (Fisher Scientific, Hampton, N.J.) at a probe setting of 3. […] The pellet contained <5% of the incorporated sialic acid as determined using a radioactive tracer (data not shown.) The supernatant was therefore considered as the “total homogenate” fraction. A portion (20%) of the “total homogenate” fraction was taken for protein quantification and Sia analysis by DMB derivatization and HPLC analysis (as discussed below.) The remainder was centrifuged at 100,000×g for 1 h. […] All the Sias in these fractions were released with mild acid hydrolysis if necessary and then analyzed by HPLC after DMB derivatization. Protein quantification was performed on the total homogenate, membrane and soluble protein fractions by using the BCA protein assay kit from Pierce (Rockford, Ill.) In some experiments, the resulting data obtained for the Sia bound to the membrane fraction and to the soluble proteins were pooled and presented here as a High Molecular Weight (HMW) fraction. […]

[2] = system: chimpanzee lymphoblasts; test: Neu5Gc/Neu5Ac feeding experiment, chimpanzee EBV-transformed lymphoblasts; assay type: cell-based; details: chimpanzee lymphoblasts fed 3 mM for 3 days
Experimental: as §1, §2, §3

[3] = system: Caco-2 cells; test: Competition of free Neu5Ac with free Neu5Gc for incorporation into Caco-2 cells; assay type: cell-based, human; details: 3 mM Neu5Gc for 3 days
Experimental: Neu5Gc and ManNGc Feeding Experiment—Neu5Ac, Neu5Gc or ManNGc were dried, dissolved in the appropriate media supplemented with heat-inactivated human serum, sterilized using a Spin-X® (Corning Inc., Corning, N.Y.) and then added to the cells. The pH of the media containing Sia was adjusted to neutrality using sterilized 1M NaOH before starting the feeding experiment. Cells were cultured in the presence of up to 3 mM free Sia or ManNGc for 1 or 3 days at 37° C. At the end of the feeding, cells were washed with cold PBS, harvested either by scraping or with 2 mM EDTA for fibroblasts, and washed again with cold PBS prior to fractionation.
Fractionation of the Labeled Cells—Washed cell pellets were sonicated into 500 μL of 20 mM sodium phosphate buffer or 20 mM Tris-HCl, pH 7.5, using 4×15 second pulses of a sonicator cell disrupter, model Some Dismembrator (Fisher Scientific, Hampton, N.J.) at a probe setting of 3. The sonicate was centrifuged at 75×g for 15 min., and the pellet obtained consisted primarily of nuclei and unbroken cells. The pellet contained <5% of the incorporated sialic acid as determined using a radioactive tracer (data not shown.) The supernatant was therefore considered as the “total homogenate” fraction. A portion (20%) of the “total homogenate” fraction was taken for protein quantification and Sia analysis by DMB derivatization and HPLC analysis (as discussed below.) The remainder was centrifuged at 100,000×g for 1 h. The resulting pellet, called the “membrane” fraction, was then resuspended by sonication (15 sec.) in 200 μl of sodium acetate buffer, pH 5.5. The 100,000×g supernatant, called the “soluble” fraction was adjusted to 90% ethanol using absolute ice-cold ethanol, and placed overnight at −20° C. The flocculant precipitate, which represents the “soluble protein” fraction, was washed 3 times with 90% ice-cold ethanol and then resuspended in 200 μl of water. The supernatant fluid representing the cytosolic low molecular weight (LMW) fraction was dried and brought up in 100 μL with water prior to Sia analysis. All the Sias in these fractions were released with mild acid hydrolysis if necessary and then analyzed by HPLC after DMB derivatization. Protein quantification was performed on the total homogenate, membrane and soluble protein fractions by using the BCA protein assay kit from Pierce (Rockford, Ill.) In some experiments, the resulting data obtained for the Sia bound to the membrane fraction and to the soluble proteins were pooled and presented here as a High Molecular Weight (HMW) fraction.
Sialic Acid Release, DMB Derivatization and HPLC Analysis—The bound Sias from the total homogenate, membrane and soluble protein fractions were released using 2M acetic acid hydrolysis, 3 h. at 80° C. The released Sias, or free Sias, contained in the soluble LMW fraction were passed through a Microcon® YM-10 filter (Millipore, Bedford, Mass.) prior to DMB derivatization, which was done according to Hara et al., 1989. DMB-Sia derivatives from the different fractions were then analyzed by HPLC using a C18 column (Microsorb Mv-TM 100 A, Varian, Palo Alto, Calif.) Isocratic elution was achieved using 7% methanol, 8% acetonitrile in water during 50 min. at 0.9 ml/min flow. The eluant was monitored by fluorescence.
Quantification of Sias—For all HPLC chromatograms, the quantification of Sias was done by comparison with known quantities of DMB derivatized Neu5Gc and Neu5Ac used as standards and then reported in terms of pmoles of Sia. For total homogenate, membrane and cytosolic protein fractions, this number was expressed per mg of protein. Due to minor sample-to-sample variations in amounts and recoveries, the data in the Figures is presented as percent of Neu5Gc over total Sias, rather than as absolute amounts.

[4] = system: Caco-2 cells; test: Endocytosis inhibition experiments (Neu5Gc uptake in Caco-2 cells); assay type: cell-based, human; details: 3 mM Neu5Gc, no inhibitor
Experimental: The sonicate was centrifuged at 75×g for 15 min., and the pellet obtained consisted primarily of nuclei and unbroken cells. […] A portion (20%) of the “total homogenate” fraction was taken for protein quantification and Sia analysis by DMB derivatization and HPLC analysis (as discussed below.) The remainder was centrifuged at 100,000×g for 1 h. The resulting pellet, called the “membrane” fraction, was then resuspended by sonication (15 sec.) in 200 μl of sodium acetate buffer, pH 5.5. The 100,000×g supernatant, called the “soluble” fraction was adjusted to 90% ethanol using absolute ice-cold ethanol, and placed overnight at −20° C. The flocculant precipitate, which represents the “soluble protein” fraction, was washed 3 times with 90% ice-cold ethanol and then resuspended in 200 μl of water. The supernatant fluid representing the cytosolic low molecular weight (LMW) fraction was dried and brought up in 100 μL with water prior to Sia analysis. All the Sias in these fractions were released with mild acid hydrolysis if necessary and then analyzed by HPLC after DMB derivatization. Protein quantification was performed on the total homogenate, membrane and soluble protein fractions by using the BCA protein assay kit from Pierce (Rockford, Ill.) In some experiments, the resulting data obtained for the Sia bound to the membrane fraction and to the soluble proteins were pooled and presented here as a High Molecular Weight (HMW) fraction. Sialic Acid Release, DMB Derivatization and HPLC Analysis—The bound Sias from the total homogenate, membrane and soluble protein fractions were released using 2M acetic acid hydrolysis, 3 h. at 80° C. The released Sias, or free Sias, contained in the soluble LMW fraction were passed through a Microcon® YM-10 filter (Millipore, Bedford, Mass.) prior to DMB derivatization, which was done according to Hara et al., 1989. […] The eluant was monitored by fluorescence. Quantification of Sias—For all HPLC chromatograms, the quantification of Sias was done by comparison with known quantities of DMB derivatized Neu5Gc and Neu5Ac used as standards and then reported in terms of pmoles of Sia. For total homogenate, membrane and cytosolic protein fractions, this number was expressed per mg of protein. Due to minor sample-to-sample variations in amounts and recoveries, the data in the Figures is presented as percent of Neu5Gc over total Sias, rather than as absolute amounts. Endocytosis Inhibition Experiments—Caco-2 or normal fibroblast cells were split and cultured in alpha-MEM media supplemented respectively with 20% or 15% human serum for 4 days before starting the endocytosis drug inhibition experiments in order to deplete any Neu5Gc derived from FCS. Cells were then pre-treated for 2 h. with the specific inhibitors under the same culture conditions. Fresh media containing the same amount of inhibitor and 3 mM of Neu5Gc was then added to the cells, which were incubated for 16 h or 3 days and finally harvested and fractionated as described above.

[5] = system: lysosomal sialic acid transporter mutant human fibroblasts (GM05520); test: Neu5Gc/ManNGc feeding, lysosomal sialic acid transporter mutant fibroblasts GM05520; assay type: cell-based; details: GM05520 (ISSD) fibroblasts fed 3 mM for 3 days
Description: (§4) Cell Lines—Caco-2 cells (human epithelial cells isolated from a primary colon carcinoma), normal human skin fibroblasts (CCD-919-SK) and chinese hamster ovary (CHO-K1) cells were purchased from ATCC (Manassas, Va.) Mutant human skin fibroblasts (GM05520, GM08496 and GM01718) were obtained from the Coriell Institute for Medical Research (Camden, N.J.) Chimpanzee Fred and human […] EBV-transformed lymphoblasts were a gift from Dr. Peter Parham, Stanford University, CA. […]
(§5) Fractionation of the Labeled Cells—Washed cell pellets were sonicated into 500 μL of 20 mM sodium phosphate buffer or 20 mM Tris-HCl, pH 7.5, using 4×15 second pulses of a sonicator cell disrupter, model Some Dismembrator (Fisher Scientific, Hampton, N.J.) at a probe setting of 3. […] The pellet contained <5% of the incorporated sialic acid as determined using a radioactive tracer (data not shown.) The supernatant was therefore considered as the “total homogenate” fraction. A portion (20%) of the “total homogenate” fraction was taken for protein quantification and Sia analysis by DMB derivatization and HPLC analysis (as discussed below.) The remainder was centrifuged at 100,000×g for 1 h. […] All the Sias in these fractions were released with mild acid hydrolysis if necessary and then analyzed by HPLC after DMB derivatization. […]

[6] = system: lysosomal sialic acid transporter mutant human fibroblasts (GM08496); test: Neu5Gc/ManNGc feeding, lysosomal sialic acid transporter mutant fibroblasts GM08496; assay type: cell-based; details: GM08496 (Salla disease) fibroblasts fed 3 mM for 3 days
Description: as §4, §5

SMILES: O=C(CO)N[C@H]1[C@H]([C@H](O)[C@H](O)CO)OC(O)(C(=O)O)C[C@@H]1O (stereo partly shown) [Neu5Gc, N-glycolylneuraminic acid]
- Neu5Gc as percent of total Sia, LMW cytosolic fraction [1]: 80%
- Neu5Gc as percent of total Sia, TH fraction [1]: 67%
- Neu5Gc as percent of total Sia, TH fraction ([2]; non-fed baseline 57%): 70%
- Neu5Gc as percent of total Sia, HMW fraction ([2]; non-fed baseline 66%): 72%
- Neu5Gc as percent of total Sia, LMW fraction ([2]; non-fed baseline 70%): 84%
- Neu5Gc as percent of total Sia, membrane-bound fraction ([3]; no added Neu5Ac): 41%
- Neu5Gc as percent of total Sia, TH ([3]; no added Neu5Ac (baseline incorporation)): 56%
- Neu5Gc incorporation into membrane-bound glycoconjugates without inhibitor (percent of total Sia) [4]: 45%
- percent of Neu5Gc in membrane-bound glycoconjugates [5]: 5%
- percent of Neu5Gc in membrane-bound glycoconjugates [6]: 16%
